From patent US5477857A, “Diagnostic uses of hydrazinoadenosines” (priority 1993, dated 1995)

Experiments:
[1] = tested on: circumflex coronary artery; assay: Circumflex coronary blood flow in anesthetized dog, electromagnetic flow probes; assay type: in vivo; settings: for increase in circumflex coronary blood flow: adenosine 372 μg/kg/min, Compound A 1.0 μg/kg/min
Experimental: An anesthetized dog was prepared for cardiovascular function testing.

[2] = Systemic blood pressure response in anesthetized dog; settings: infusion: adenosine 372 μg/kg/min, Compound A 1 μg/kg/min
Experimental: An anesthetized dog was prepared for cardiovascular function testing. Electromagnetic flow probes were placed on the circumflex coronary artery and the left anterior descending coronary artery. Systemic systolic and diastolic blood pressure and heart rate were also measured.

[3] = target: T1, A1 (EKG) (Cavia porcellus, UniProt P47745); assay: A50 for decrease in heart rate or conduction velocity on the EKG (A1 effect) in the isolated guinea pig heart
T1 construct: An isolated guinea pig heart preparation was set up using well-known techniques; from tissue; host or cells: isolated perfused guinea pig heart
T1 sequence (P47745 1-326): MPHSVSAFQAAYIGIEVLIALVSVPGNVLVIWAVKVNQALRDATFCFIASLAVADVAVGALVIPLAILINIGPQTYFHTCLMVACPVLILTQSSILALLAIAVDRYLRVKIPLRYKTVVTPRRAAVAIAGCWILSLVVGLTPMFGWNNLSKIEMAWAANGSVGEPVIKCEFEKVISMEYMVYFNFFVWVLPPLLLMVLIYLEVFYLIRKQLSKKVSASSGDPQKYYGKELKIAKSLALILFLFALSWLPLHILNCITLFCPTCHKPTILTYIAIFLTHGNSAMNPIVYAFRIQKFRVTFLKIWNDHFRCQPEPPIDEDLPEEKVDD

[4] = target: A2a (coronary) (Cavia porcellus, UniProt P46616)
A2a (coronary), sequence (P46616 whole entry, the tested form may be a part): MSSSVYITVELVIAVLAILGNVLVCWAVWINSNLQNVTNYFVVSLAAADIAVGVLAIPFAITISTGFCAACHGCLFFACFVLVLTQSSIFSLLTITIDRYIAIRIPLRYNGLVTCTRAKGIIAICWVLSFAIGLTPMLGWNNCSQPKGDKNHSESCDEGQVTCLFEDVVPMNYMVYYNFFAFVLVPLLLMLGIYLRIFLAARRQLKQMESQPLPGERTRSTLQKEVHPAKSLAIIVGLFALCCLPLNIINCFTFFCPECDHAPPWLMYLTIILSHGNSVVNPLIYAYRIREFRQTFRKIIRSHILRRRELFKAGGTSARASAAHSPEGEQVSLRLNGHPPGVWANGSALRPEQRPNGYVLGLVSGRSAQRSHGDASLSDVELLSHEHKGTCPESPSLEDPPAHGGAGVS
Experimental: An isolated guinea pig heart preparation was set up using well-known techniques. The heart was perfused with a constant flow pump through the coronary vessels with a oxygenated balanced salt solution. The coronary perfusion pressure and the EKG were measured. Under constant flow, a decrease in coronary perfusion pressure indicates dilation (A2a effect).

[5] = literature; cited from earlier work
[6] = tested on: coronary arterioles; settings: background, cited from earlier work
[7] = tested on: circumflex coronary artery; assay: Thallium-201 scintigram in anesthetized dogs with stenosed circumflex coronary artery; assay type: in vivo; settings: dog, adenosine 372 μg/kg/min for 6 minutes, Compound A 0.6 μg/kg/min
Text: Dogs were anesthetized and their circumflex coronary artery was stenosed to produce a cardiac perfusion deficit.

[8] = infusion: adenosine 372 μg/kg/min, Compound A 1 μg/kg/min

| SMILES | increase in circumflex coronary blood flow [1] | CHANGE IN CIRCUMFLEX CORONARY FLOW [1, 8] | DURATION OF RESPONSE [2] | EC50 [3] | S[…] A1/A2a ([4]; A50 EKG (A1) over A50 coronary (A2a)) | potency relative to adenosine in causing coronary vasodilation ([4]; isolated guinea pig heart, vs adenosine) | EC50 ([4]; read-out: A50 CORONARY (A2a EFFECT), isolated guinea pig heart, concentration producing a 50% maximal response) | duration of significant hypotensive response [5] | reflex tachycardia [5] | CHANGE IN […] FLOW [1, 8] | CHANGE IN SYSTOLIC BLOOD PRESSURE [2] | duration of coronary blood flow effect [6] | heart block ([6]; particularly at doses near 1 mg/kg) | perfusion defect shown on thallium-201 scintigram [7] |
| --- | --- | --- | --- | --- | --- | --- | --- | --- | --- | --- | --- | --- | --- | --- |
| Nc1nc(NN=CC2CCCCC2)nc2c1ncn2[C@@H]1O[C@H](CO)[C@@H](O)[C@H]1O [Compound A] | 500% | +500% | 15 min | 3 µM | 15,000 | 250 times | 0.0002 µM | – | – | – | – | – | – | – |
| CCNC(=O)[C@H]1O[C@@H](n2cnc3c(N)nc(NCCc4ccc(CCC(=O)O)cc4)nc32)[C@H](O)[C@@H]1O [CGS 21680] | – | – | – | – | – | – | – | more than 24 hrs | significant reflex tachycardia | – | – | – | – | – |
| Nc1ncnc2c1ncn2[C@@H]1O[C@H](CO)[C@@H](O)[C@H]1O [Adenosine, adenosine] | 300% | – | 5 min | – | – | – | – | – | – | +300% | -25% | short-lasting | even blocks (stops) the heart beat | clearly showed a perfusion defect |
